# Where a SMILES comes first, the peptide text is derived from it. The star is where a group is joined. Cbz = O=C(OCc1ccccc1)*
# How the values were obtained:
# endogenous REST protein [1] = experiment: Western blot of endogenous REST protein levels in transfected E12.5 neurospheres; assay type: cell-based; conditions: E12.5 mouse cortical neurospheres after transfection; MG132 4 h; compared to control peptides
# Method: FIG. 7B is an image of a Western blot showing endogenous REST protein levels in E12.5 neurospheres after transfection. Lane 1, empty vector; lane 2, control (595-694) peptide; lane 3, REST(810-910) S861/864A peptide; lane 4, REST(810-910) WT peptide; lane 5, empty vector with MG132 treated for 4 h. The blot was probed with anti-mouse-REST antibody and anti-tubulin (loading control) antibodies.
# There is a significant difference between REST (810-910) compared to control (595-694) peptide (n=5, p=0.0021) and REST(810-910) compared to S861/864A REST(810-910) (n=5, p=0.046). The difference between MG132 and REST(810-910) is not significant (n=5, p=0.7996, Sidak's multiple comparison test, error bars represent 95% confidence interval).
# The Examples above used the REST (810-910) reporter as a surrogate substrate for signaling molecules that target S861/S864 on full-length REST. […]
# (§1) Whole cell lysates were prepared and immunoprecipitated following the procedures in Ballas N et al, 2001 supra and Nesti E et al, Mol Biol Cell 15, 4073-4088 (2004); incorporated by reference herein. Western blots were performed by standard procedures using antibodies described below and analyzed using anti IgG conjugated to infrared dyes (ThermoFisher) on an Odyssey® infrared fluorescence imager (LiCor). […] Infrared fluorescence was detected on the Odyssey® imager (LiCor) in the 700 nm channel. […]
# endogenous REST protein [2] = experiment: Western blot of endogenous REST protein after transfection of CTDSP1 cDNA into HEK293T cells; assay type: cell-based, Human; conditions: HEK293T cells transfected with CTDSP1 cDNA
# Method: FIG. 6D is an image of a Western blot analysis showing stabilized endogenous REST protein after transfection of CTDSP1 cDNA into HEK293T cells. α-tubulin is the loading control.
# Using a REST phospho-specific polyclonal antibody, it was shown that exogenously expressed FLAG-CTDSP1 dephosphorylated these sites in full-length REST (FIG. 6B). Dephosphorylation by CTDSP1 was also observed in the REST reporter peptides as detected by in-gel fluorescence (FIG. 6C).
# as §1, with “(LiCor). For detecting phosphorylated REST at S861/S864, cell extracts were prepared lacking phosphatase inhibitors. For phosphatase treatment, 75 μg of total protein was treated with 600 U lambda phosphatase (New England Biolabs) or with buffer alone at 30° C. for 1 h, according to the manufacturer's protocol.” for “(LiCor).”
# MEK [3] = experiment: Native gel / in-gel GFP fluorescence of REST (810-910)-GFP reporter peptide phosphorylation in HEK293T cells; assay type: cell-based, Human
# Method: To interrogate this serine residue, HEK293T cells were transfected with the REST (810-910)-GFP peptide with alanine mutations at S856, S861, and/or S864 as indicated. (S856/864A is S856A/S864A with S861 unmutated; S856/861A is S856A/S861A with S864 unmutated; S861/864A is S861A/S864A with S856 unmutated). […]
# Gels were treated the same as in FIG. 5C.
# To monitor phosphorylation status of specific REST sites under different circumstances, a cDNA reporter construct that expresses a peptide encoding amino acids 810-to-910 of REST (FIG. 3A) was constructed. Mutant REST (810-910) cDNAs encoding alanine mutations at S861, S864 and at an adjacent site, S856 were also constructed. S856 was minimally phosphorylated in the mass spectrometric analysis described above. […] The constructs also comprise regions that encode N-terminal FLAG and C-terminal eGFP tags (FIG. 3A). These constructs were transfected into HEK cells and expressed. Extracts from the cells were resolved on native gels 24 hours after transfection. The expressed peptides were detected by in-gel GFP fluorescence.
# The phosphorylation state of the expressed REST peptides can be visualized by differential migration in native gels due to charge differences. The unmutated S861/S864 REST 810-910 peptide (FIG. 3B, lane 1) migrated predominantly as two distinct bands that were not present upon treatment with lambda phosphatase (FIG. 3B, lane 7). […] The identification of the doubly phosphorylated species was based upon the mobility of an unmutated peptide containing unmutated S861/864 (FIG. 3B, lane 2, S856A), which was not present in samples expressing peptides containing S861A or S864A single mutations (lanes 3 and 4, respectively).
# Detection of in gel fluorescence on native 10.5%-14% acrylamide gels (Bio-Rad Cat #345-9949) was performed using the Typhoon imaging system by GE Healthcare Life Science.
# MEK [4] = experiment: Western blot of FLAG-REST protein levels in transfected HEK cells after MEK/ERK inhibitor; assay type: cell-based, Human; conditions: HEK cells transfected with FLAG-REST cDNA, PD184352 or vehicle for 30 min
# Method: To provide further support for this, unmutated REST (810-910) reporter cDNA was transfected into HEK cells and the peptide expressed in the presence and absence of the MEK/ERK inhibitor PD184352. Treatment with PD184352 caused a modest loss from the band at the position representing unmutated S861/S864 peptide and a reciprocal modest increase in the species representing unphosphorylated peptide (FIG. 5C). […] Accordingly, HEK cells transfected with FLAG-REST cDNA were treated with PD184352 for 30 min and the extracts were analyzed by Western blot.
# as §1, with “(LiCor). For detecting phosphorylated REST at S861/S864, cell extracts were prepared lacking phosphatase inhibitors. For phosphatase treatment, 75 μg of total protein was treated with 600 U lambda phosphatase (New England Biolabs) or with buffer alone at 30° C. for 1 h, according to the manufacturer's protocol.” for “(LiCor).”
# Pin1 [5] = target: T1, Pin1 (Rattus norvegicus, UniProt A0ABK0LFD7); experiment: Western blot of FLAG-REST protein levels in PC12 tet-on FLAG-REST cells treated with Pin1 inhibitor; assay type: cell-based; conditions: PC12 tet-on FLAG-REST cells induced 24 h with doxycycline, PiB or vehicle for 7.5 h
# T1 construct: endogenous in cells; host or cells: PC12 tet-on FLAG-REST cells
# T1 sequence (A0ABK0LFD7 1-162): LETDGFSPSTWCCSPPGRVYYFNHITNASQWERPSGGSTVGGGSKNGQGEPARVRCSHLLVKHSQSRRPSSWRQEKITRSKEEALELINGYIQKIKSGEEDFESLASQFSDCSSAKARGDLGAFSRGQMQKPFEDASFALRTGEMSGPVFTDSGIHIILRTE
# Method: PC12 tet-on FLAG-REST cells were induced 24 h with doxycycline, treated with PiB or vehicle for 7.5 h, and then extracted for analysis. Blots were probed with anti-FLAG (REST) and α-tubulin (loading control).
# (§2) HEK293T cells were transfected using Lipofectamine 2000 (Life Technologies) following the manufacturer's instructions. PC12 tet, PC12 tet-on FLAG-REST, and HEK293T cell lines were maintained as described in Ballas N et al 2001 supra. Neurospheres were isolated from E12.5 mouse cortices and cultured as described in Reynolds B A and Weiss S, Science 255, 1707-1710 (1992); incorporated by reference herein in neurobasal media supplemented with 2 mM L-glutamine, 100 U/mL penicillin, […] streptomycin, B27 supplement, 20 ng/mL EGF, and 10 ng/mL FGF-2, all from Life Technologies. Neurospheres were passaged every 3-4 days using Accutase® (Sigma). […]
# as §1
# Pin1 [6] = target: T2, Pin1 (Homo sapiens, UniProt Q13526); experiment: Co-immunoprecipitation of GST-βTrCP with FLAG-REST in HEK293T cells after Pin1 inhibition; assay type: cell-based; conditions: FLAG-REST and GST-βTrCP 48 h, PiB 7.5 h and MG132 4 h
# T2 construct: endogenous in cells; host or cells: HEK293T
# T2 sequence (Q13526 whole entry): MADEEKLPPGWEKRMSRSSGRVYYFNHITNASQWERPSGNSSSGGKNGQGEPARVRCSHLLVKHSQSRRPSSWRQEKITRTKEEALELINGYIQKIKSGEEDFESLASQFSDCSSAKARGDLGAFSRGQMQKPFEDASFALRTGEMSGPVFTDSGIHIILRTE
# Method: HEK293T cells were transfected with FLAG-REST (unmutated or S861A/S864A) and GST-βTrCP for 48 h prior to treatment with PiB for 7.5 h and MG132 for 4 h, and then immunoprecipitated. Western blots were probed with anti-FLAG or anti-GST.
# as §2, §1
compound,measurement,setting,value
CC(C)C[C@@H](C=O)NC(=O)[C@H](CC(C)C)NC(=O)[C@H](CC(C)C)NC(=O)OCc1ccccc1 [MG132] (Cbz-Leu-Leu-Leu-aldehyde),Endogenous full-length REST protein levels,endogenous REST protein [1],did not stabilize the Rest protein further
same,"REST stabilization by CTDSP1, further effect of MG132",endogenous REST protein [2],not increased further
O=C(NOCC1CC1)c1ccc(F)c(F)c1Nc1ccc(I)cc1Cl [PD184352],EGF-induced phosphorylation of S864 in REST (810-910)-GFP peptide,"MEK [3]; HEK293T, PD184352 for 20 min, then recombinant EGF 10 min",inhibited
same,Bands of doubly phosphorylated and non-phosphorylated REST (810-910) peptide,"MEK [3]; REST (810-910) and GFP cDNA co-transfected into HEK cells, presence and absence of PD184352 (FIG. 10)",loss of band representing the doubly phosphorylated peptide
same,S861/S864 phosphorylation in WT REST peptide,"MEK [3]; transfected HEK293T cells, 10 mM PD184352 for 4 hours",partial loss of S861/S864 phosphorylation
same,FLAG-REST protein levels (Western blot),MEK [4],increased FLAG-REST protein levels
CCOC(=O)CN1C(=O)c2ccc3c4c(ccc(c24)C1=O)C(=O)N(CC(=O)OCC)C3=O [PiB],REST protein levels (anti-FLAG Western blot),Pin1 [5],higher REST protein levels
same,βTrCP binding to REST (co-immunoprecipitation),Pin1 [6],diminished βTrCP binding to REST
"EGF: recombinant EGF, upstream activator of ERK",Phosphorylation of S864 in REST (810-910)-GFP peptide (mobility shift),"MEK [3]; HEK293T, recombinant EGF or vehicle 10 min",induces phosphorylation of S864

# Reference: patent US20160031958A1, “METHODS AND COMPOSITIONS USEFUL IN MANIPULATING THE STABILITY OF RE1 SILENCING TRANSCRIPTION FACTOR” (OREGON HEALTH & SCIENCE UNIVERSITY, priority 2014, published 2016)
